We go through two molecules from patent publication US5354676A, “Recombinant modified thermostable NAD-dependent dehydrogenases and process for their production” (The University of Bristol, priority 1989, dated 1994).

For assay [1], the target named is T1, Bacillus stearothermophilus L-lactate dehydrogenase variant MVS (102-5 QKP→MVS) (Geobacillus stearothermophilus, UniProt P00344, K87V/P88S/Q86M).
T1 construct: made in house; host or cells: E. coli TG2, vector pKK223-3
Nature of the assay: biochemical. Particulars: pH 6, read-out: stimulation in kcat/Km by FBP.
Method: (§1) Steady-state reaction rates were determined by following the change in A340 due to the consumption of NADH. […] The buffer for all experiments was 100rmM triethanolamine-HC1/NaOH,pH 6.

Assay [2] concerns the target T2, Bacillus stearothermophilus L-lactate dehydrogenase variant GG (235-6 AA→GG) (Geobacillus stearothermophilus, UniProt P00344, A222G/A223G). Nature of the assay: biochemical. Particulars: pH 6, read-out: stimulation in kcat/Km by FBP.
Method: as §1
Assay [3] concerns the target T3, Bacillus stearothermophilus NAD-dependent L-lactate dehydrogenase, wild type (WT) (Geobacillus stearothermophilus, UniProt P00344).
T3 construct: made in house; host or cells: E. coli
The experiment in a line: biochemical. Particulars: pH 6, read-out: stimulation in kcat/Km by FBP.
Method: as §1

The target of assay [4] is T4, Bacillus stearothermophilus L-lactate dehydrogenase variant MVS/GG (102-5 QKP→MVS and 235-6 AA→GG) (Geobacillus stearothermophilus, UniProt P00344, A222G/A223G/K87V/P88S/Q86M).
T4 construct: made in house; host or cells: E. coli TG2, vector pKK223-3
T4 sequence (P00344 whole entry Q86M/K87V/P88S/A222G/A223G, the tested form may be a part): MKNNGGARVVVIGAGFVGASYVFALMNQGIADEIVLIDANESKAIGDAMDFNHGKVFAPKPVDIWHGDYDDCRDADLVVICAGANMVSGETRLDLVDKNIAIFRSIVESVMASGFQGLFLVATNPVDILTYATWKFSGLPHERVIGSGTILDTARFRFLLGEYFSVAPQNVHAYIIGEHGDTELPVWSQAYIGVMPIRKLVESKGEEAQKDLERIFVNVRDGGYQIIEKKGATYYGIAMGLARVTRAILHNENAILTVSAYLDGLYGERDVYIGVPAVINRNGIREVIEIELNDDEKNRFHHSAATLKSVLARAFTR
The experiment in a line: biochemical.
Method: as §1

Assay [5] has as its target T2, Bacillus stearothermophilus L-lactate dehydrogenase variant GG (235-6 AA→GG). Particulars: No FBP, pH 6.
Method: as §1

T2 sequence (P00344 whole entry A222G/A223G, the tested form may be a part): as the sequence (P00344 whole entry Q86M/K87V/P88S/A222G/A223G, the tested form may be a part) above, with M86Q, V87K, S88P counted along it
T1 sequence (P00344 whole entry Q86M/K87V/P88S): as the sequence (P00344 whole entry Q86M/K87V/P88S/A222G/A223G, the tested form may be a part) above, with G222A, G223A counted along it
T3 sequence (P00344 whole entry): as the sequence (P00344 whole entry Q86M/K87V/P88S/A222G/A223G, the tested form may be a part) above, with M86Q, V87K, S88P, G222A, G223A counted along it

For the molecule `O=C(COP(=O)(O)O)[C@@H](O)[C@H](O)[C@H](O)COP(=O)(O)O` [FBP, fructose-1,6-bisphosphate], the fold induction at 5000 µM in assay [1] was 100; in assay [2], 60; in assay [3], 50; in assay [4] (pH 6, read-out: stimulation in kcat/Km by FBP) it was 16.

For `CC(=O)C(=O)O` [Pyruvate], the Km (in general, the substrate concentration at which the rate is half of its maximum) was above 50 mM in assay [4] (MVS/GG, No FBP, pH 6) and above 50 mM in assay [5].
